{
  "source": "PubChem BioAssay (NCI)",
  "test_in_all_cases": "inhibition of tumour cell growth, NCI panel, 48 h",
  "key": {"SF-295 CNS": {"test_system": "SF-295 CNS"}, "MOLT-4 leukemia": {"test_system": "MOLT-4 leukemia"}, "NCI/ADR-RES ovarian": {"test_system": "NCI/ADR-RES ovarian"}, "SF-268 CNS": {"test_system": "SF-268 CNS"}, "K-562 leukemia": {"test_system": "K-562 leukemia"}, "HCC-2998 colon": {"test_system": "HCC-2998 colon"}, "UO-31 renal": {"test_system": "UO-31 renal"}, "SNB-75 CNS": {"test_system": "SNB-75 CNS"}, "HL-60(TB) leukemia": {"test_system": "HL-60(TB) leukemia"}, "MDA-MB-231 breast": {"test_system": "MDA-MB-231 breast"}, "SK-MEL-2 melanoma": {"test_system": "SK-MEL-2 melanoma"}, "TK-10 renal": {"test_system": "TK-10 renal"}, "NCI-H522 lung": {"test_system": "NCI-H522 lung"}, "HS 578T breast": {"test_system": "HS 578T breast"}, "NCI-H226 lung": {"test_system": "NCI-H226 lung"}, "M14 melanoma": {"test_system": "M14 melanoma"}, "KM12 colon": {"test_system": "KM12 colon"}, "HOP-92 NSCLC": {"test_system": "HOP-92 NSCLC"}, "UACC-257 melanoma": {"test_system": "UACC-257 melanoma"}, "NCI-H460 lung": {"test_system": "NCI-H460 lung"}, "CCRF-CEM leukemia": {"test_system": "CCRF-CEM leukemia"}, "OVCAR-5 ovarian": {"test_system": "OVCAR-5 ovarian"}, "SK-MEL-28 melanoma": {"test_system": "SK-MEL-28 melanoma"}, "A498 renal": {"test_system": "A498 renal"}, "HT29 colon": {"test_system": "HT29 colon"}, "SNB-19 CNS": {"test_system": "SNB-19 CNS"}, "EKVX NSCLC": {"test_system": "EKVX NSCLC"}, "MCF7 breast": {"test_system": "MCF7 breast"}, "RPMI-8226 leukemia": {"test_system": "RPMI-8226 leukemia"}, "HCT-15 colon": {"test_system": "HCT-15 colon"}, "MDA-N": {"test_system": "MDA-N"}, "A549 NSCLC": {"test_system": "A549 NSCLC"}, "U251 CNS": {"test_system": "U251 CNS"}, "OVCAR-8 ovarian": {"test_system": "OVCAR-8 ovarian"}, "OVCAR-4 ovarian": {"test_system": "OVCAR-4 ovarian"}, "UACC-62 melanoma": {"test_system": "UACC-62 melanoma"}, "HCT-116 colon": {"test_system": "HCT-116 colon"}, "LOX IMVI melanoma": {"test_system": "LOX IMVI melanoma"}, "NCI-H23 lung": {"test_system": "NCI-H23 lung"}, "IGROV1 ovarian": {"test_system": "IGROV1 ovarian"}, "PC-3 prostate": {"test_system": "PC-3 prostate"}, "RXF 393 renal": {"test_system": "RXF 393 renal"}, "MDA-MB-435": {"test_system": "MDA-MB-435"}, "T-47D breast": {"test_system": "T-47D breast"}, "786-0 renal": {"test_system": "786-0 renal"}, "HOP-62 NSCLC": {"test_system": "HOP-62 NSCLC"}, "ACHN renal": {"test_system": "ACHN renal"}, "DU-145 prostate": {"test_system": "DU-145 prostate"}, "SK-OV-3 ovarian": {"test_system": "SK-OV-3 ovarian"}, "SK-MEL-5 melanoma": {"test_system": "SK-MEL-5 melanoma"}, "CAKI-1 renal": {"test_system": "CAKI-1 renal"}, "SN12C renal": {"test_system": "SN12C renal"}, "SF-539 CNS": {"test_system": "SF-539 CNS"}, "COLO 205 colon": {"test_system": "COLO 205 colon"}, "SR leukemia": {"test_system": "SR leukemia"}},
  "note": "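48-hour exposure; five concentrations; linearly interpolated endpoints. TGI marks complete inhibition of growth.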",
  "data": [
    {"smiles": "COc1c(-c2ccc3c(c2)OCO3)oc2cc(O)cc(O)c2c1=O", "values": [
      {"measurement": "TGI", "setting": "SF-295 CNS", "result": "> 100", "unit": "µM"},
      {"measurement": "TGI", "setting": "MOLT-4 leukemia", "result": "> 100", "unit": "µM"},
      {"measurement": "TGI", "setting": "NCI/ADR-RES ovarian", "result": "> 100", "unit": "µM"},
      {"measurement": "TGI", "setting": "SF-268 CNS", "result": "> 100", "unit": "µM"},
      {"measurement": "TGI", "setting": "K-562 leukemia", "result": "> 100", "unit": "µM"},
      {"measurement": "TGI", "setting": "HCC-2998 colon", "result": "> 100", "unit": "µM"},
      {"measurement": "TGI", "setting": "UO-31 renal", "result": "> 100", "unit": "µM"},
      {"measurement": "TGI", "setting": "SNB-75 CNS", "result": 53.6, "unit": "µM"},
      {"measurement": "TGI", "setting": "HL-60(TB) leukemia", "result": "> 100", "unit": "µM"},
      {"measurement": "TGI", "setting": "MDA-MB-231 breast", "result": "> 100", "unit": "µM"},
      {"measurement": "TGI", "setting": "SK-MEL-2 melanoma", "result": "> 100", "unit": "µM"},
      {"measurement": "TGI", "setting": "TK-10 renal", "result": "> 100", "unit": "µM"},
      {"measurement": "TGI", "setting": "NCI-H522 lung", "result": 83.8, "unit": "µM"},
      {"measurement": "TGI", "setting": "HS 578T breast", "result": 53.3, "unit": "µM"},
      {"measurement": "TGI", "setting": "NCI-H226 lung", "result": "> 100", "unit": "µM"},
      {"measurement": "TGI", "setting": "M14 melanoma", "result": "> 100", "unit": "µM"},
      {"measurement": "TGI", "setting": "KM12 colon", "result": "> 100", "unit": "µM"},
      {"measurement": "TGI", "setting": "HOP-92 NSCLC", "result": "> 100", "unit": "µM"},
      {"measurement": "TGI", "setting": "UACC-257 melanoma", "result": "> 100", "unit": "µM"},
      {"measurement": "TGI", "setting": "NCI-H460 lung", "result": "> 100", "unit": "µM"},
      {"measurement": "TGI", "setting": "CCRF-CEM leukemia", "result": "> 100", "unit": "µM"},
      {"measurement": "TGI", "setting": "OVCAR-5 ovarian", "result": "> 100", "unit": "µM"},
      {"measurement": "TGI", "setting": "SK-MEL-28 melanoma", "result": "> 100", "unit": "µM"},
      {"measurement": "TGI", "setting": "A498 renal", "result": 72.3, "unit": "µM"},
      {"measurement": "TGI", "setting": "HT29 colon", "result": "> 100", "unit": "µM"},
      {"measurement": "TGI", "setting": "SNB-19 CNS", "result": "> 100", "unit": "µM"},
      {"measurement": "TGI", "setting": "EKVX NSCLC", "result": "> 100", "unit": "µM"},
      {"measurement": "TGI", "setting": "MCF7 breast", "result": 75.3, "unit": "µM"},
      {"measurement": "TGI", "setting": "RPMI-8226 leukemia", "result": "> 100", "unit": "µM"},
      {"measurement": "TGI", "setting": "HCT-15 colon", "result": "> 100", "unit": "µM"},
      {"measurement": "TGI", "setting": "MDA-N", "result": "> 100", "unit": "µM"},
      {"measurement": "TGI", "setting": "A549 NSCLC", "result": "> 100", "unit": "µM"},
      {"measurement": "TGI", "setting": "U251 CNS", "result": "> 100", "unit": "µM"},
      {"measurement": "TGI", "setting": "OVCAR-8 ovarian", "result": "> 100", "unit": "µM"},
      {"measurement": "TGI", "setting": "OVCAR-4 ovarian", "result": 95, "unit": "µM"},
      {"measurement": "TGI", "setting": "UACC-62 melanoma", "result": "> 100", "unit": "µM"},
      {"measurement": "TGI", "setting": "HCT-116 colon", "result": "> 100", "unit": "µM"},
      {"measurement": "TGI", "setting": "LOX IMVI melanoma", "result": "> 100", "unit": "µM"},
      {"measurement": "TGI", "setting": "NCI-H23 lung", "result": "> 100", "unit": "µM"},
      {"measurement": "TGI", "setting": "IGROV1 ovarian", "result": "> 100", "unit": "µM"},
      {"measurement": "TGI", "setting": "PC-3 prostate", "result": "> 100", "unit": "µM"},
      {"measurement": "TGI", "setting": "RXF 393 renal", "result": 42.5, "unit": "µM"},
      {"measurement": "TGI", "setting": "MDA-MB-435", "result": "> 100", "unit": "µM"},
      {"measurement": "TGI", "setting": "T-47D breast", "result": 64.7, "unit": "µM"},
      {"measurement": "TGI", "setting": "786-0 renal", "result": "> 100", "unit": "µM"},
      {"measurement": "TGI", "setting": "HOP-62 NSCLC", "result": 55.5, "unit": "µM"},
      {"measurement": "TGI", "setting": "ACHN renal", "result": "> 100", "unit": "µM"},
      {"measurement": "TGI", "setting": "DU-145 prostate", "result": "> 100", "unit": "µM"},
      {"measurement": "TGI", "setting": "SK-OV-3 ovarian", "result": 85.4, "unit": "µM"},
      {"measurement": "TGI", "setting": "SK-MEL-5 melanoma", "result": "> 100", "unit": "µM"},
      {"measurement": "TGI", "setting": "CAKI-1 renal", "result": 86.4, "unit": "µM"},
      {"measurement": "TGI", "setting": "SN12C renal", "result": "> 100", "unit": "µM"},
      {"measurement": "TGI", "setting": "SF-539 CNS", "result": "> 100", "unit": "µM"},
      {"measurement": "TGI", "setting": "COLO 205 colon", "result": "> 100", "unit": "µM"},
      {"measurement": "TGI", "setting": "SR leukemia", "result": "> 100", "unit": "µM"}
    ]}
  ]
}
